Entries after “also recorded” stand apart in the source; their conditions may differ. Like-named read-outs stand apart in the source and are kept apart here.
Legend:
[1] = Biopharmaceutical Classification System (BCS) classification; conditions: high permeability, high aqueous solubility
Excerpt: Interpreting the data published by Hengstmann, the mass balance of total radioactivity excreted into urine following an oral dose was 92% of what was recovered following an intravenous dose, so that phenylephrine would therefore be considered a “high permeability” compound. (Hengstmann and Goronzy, 1982; Amidon et al., 1995) Combining this with its high aqueous solubility, phenylephrine would be classified as a Biopharmaceutical Classification System (BCS) class 1 compound. […] (Amidon et al., 1995; Wu and Benet, 2005) Therefore, to improve the oral bioavailability of PE, a metabolism-targeted approach would be most useful.

[2] = cited from earlier work
[3] = system: human LS180 intestinal cells; assay: Inhibition of phenylephrine (PE) metabolism (PE disappearance) in LS180 cells; type: cell-based; conditions: for activity at 100 µM: Homo sapiens; for effect on PE disappearance / PE metabolism (in words): inhibitor 100 μM
Protocol: The inhibitors which can be used in the practice of the invention are wide ranging. […] The LS180 model provides an inexpensive method to imitate the human intestine, with regards to PE metabolism. […] For the LS180 experiments, LS180 cells are seeded at the concentration of 1.9×10^5 cells/ml in 12-well plate. […] After incubation, medium is removed and stored at −80° C. until analysis. The metabolic reactions are quenched by placing 12-well plate on ice and quickly rinsing each well. The cell extraction of metabolites is carried out with 1 ml 2% acetic acid solution in methanol. Cells are scraped and collected in centrifuge tubes. The suspension is mixed for 2-3 min and centrifuged at 18,000 rcf for 5 min. Supernatants (800 μl) are collected. After scraping, each well is washed twice as above. The washing solution is collected with the supernatant and dried under reduced pressure. The residue is re-suspended in 35 μl water and analyzed by HPLC. […] The data are processed with one-way ANOVA followed by Dunnett's post test; * indicates p<0.05.
Phenolic compounds were selected from FDA's “GRAS” list, approved food additives, or dietary supplements. LS180 cells were used as a model to test the effect of these phenolic compounds on the pre-systemic sulfation of PE. The cells were incubated in 0.5 ml medium with PE (50 μM)±inhibitor (100 μM) overnight. Extracellular buffer was collected and cells were extracted with methanol. PE was determined by reversed-phase HPLC with fluorescence detection. The formation of PE-sulfate was analyzed by LC-MS/MS. Results (n=3 per group) were analyzed by one-way ANOVA with Dunnett's post-test (p<0.05; Prism 5).

LS180 cells [4] = assay: Inhibition of resveratrol metabolism (disappearance) in LS180 cells; type: cell-based, human; conditions: for activity at 100 µM: Homo sapiens, read-out: Extent of RES Disappearance (as % of control); for inhibition of resveratrol metabolism (in words): 4 hours
LS180 cells [5] = assay: Inhibition of 2-methoxyestradiol metabolism (disappearance) in LS180 cells; type: cell-based, human; conditions: for activity at 100 µM: Homo sapiens, LS180, 1 h
[6] = PE 50 μM, inhibitors total 100 μM (ascorbic acid 1 mM), LS180 cells, incubation 14 hr, read-out: Extent of PE Disappearance (as % of control)
[7] = resveratrol 25 μM, inhibitor 100 μM, LS180 cells, incubation 4 hr
[8] = resveratrol 25 μM, inhibitor 100 μM, LS180 cells
[9] = 2-ME 10 μM, inhibitor 100 μM, incubation time 1 hr (table)
[10] = 2-ME 10 μM, inhibitor 100 μM, incubation time 1 hr (table), read-out: Extent of 2-ME Disappearance (as % of control)
[11] = PE 50 μM ± inhibitor 100 μM, LS180 cells, overnight, n=3, control=503±127 pmol/hr, read-out: extent of disappearance of PE (mean±SD, as % of control)
[12] = PE 50 μM, LS180 cells, overnight
[13] = PE 50 μM, inhibitors total 100 μM (ascorbic acid 1 mM), LS180 cells, incubation 17 hr, read-out: Extent of PE Disappearance (as % of control)

## CNC[C@H](O)c1cccc(O)c1 [phenylephrine]
[1]
  Biopharmaceutical Classification System (BCS) class: class 1
[2]; mass balance, oral vs intravenous, Hengstmann data
  total radioactivity excreted into urine following an oral dose, relative to intravenous dose: 92%
[2]; oral
  oral bioavailability: < 38%

## CCCOC(=O)c1ccc(O)cc1 [propylparaben]
[3]; [6]
  activity at 100 µM: 53.8%
LS180 cells [4]; [7]
  activity at 100 µM: 57.8%
LS180 cells [4]; [8]
  inhibition of resveratrol metabolism (in words): significant inhibition
LS180 cells [5]; 2-ME 10 μM, inhibitor 100 μM
  inhibition of 2ME metabolism (in words): Significant inhibition
LS180 cells [5]; [9]
  Extent of 2-ME Disappearance (as % of control): 57.7%
LS180 cells [5]; [10]
  activity at 100 µM: 51.7%

## COc1cc(/C=C/c2ccc(O)cc2)cc(OC)c1 [pterostilbene]
[3]; [11]
  activity at 100 µM: 71 ± 7%
[3]; PE 50 μM, inhibitors total 100 μM, LS180 cells, incubation 19 hr, read-out: Extent of PE Disappearance (as % of control)
  activity at 100 µM: 70.6%

## CCCOC(=O)c1cc(O)c(O)c(O)c1 [propyl gallate]
[3]; [6]
  activity at 100 µM: 114%
[3]; [12]
  effect on PE disappearance / PE metabolism (in words): no significant effect on PE disappearance
LS180 cells [4]; [7]
  activity at 100 µM: 51.2%
LS180 cells [4]; [8]
  inhibition of resveratrol metabolism (in words): significant inhibition
LS180 cells [5]; 2-ME 10 μM, inhibitor 100 μM
  inhibition of 2ME metabolism (in words): Significant inhibition
LS180 cells [5]; [9]
  Extent of 2-ME Disappearance (as % of control): 50.4%
LS180 cells [5]; [10]
  activity at 100 µM: 42.8%

## COc1cc(/C=C/C(=O)O)cc(OC)c1O [sinapic acid]
LS180 cells [4]; [7]
  activity at 100 µM: 86.1%
LS180 cells [5]; [10]
  activity at 100 µM: 88.1%

## O=C(O)c1cc(O)c(O)c(O)c1 [gallic acid]
LS180 cells [5]; [10]
  activity at 100 µM: 102%

## COc1cc(/C=C/C(=O)O)ccc1O [ferulic acid]
LS180 cells [4]; [7]
  activity at 100 µM: 100%
LS180 cells [5]; [10]
  activity at 100 µM: 102%

## COC(=O)c1ccc(O)cc1 [methylparaben]
[3]; [13]
  activity at 100 µM: 75.9%
LS180 cells [4]; [7]
  activity at 100 µM: 0.4%
LS180 cells [4]; [8]
  inhibition of resveratrol metabolism (in words): greatest extent of inhibition

## C=CCc1ccc(O)c(OC)c1 [eugenol]
[3]; LS180, 17.5 h, read-out: Extent of PE Disappearance (as % of control)
  activity at 100 µM: 133%
[3]; [12]
  effect on PE disappearance / PE metabolism (in words): failed to inhibit PE metabolism alone; also recorded: no significant effect on PE disappearance
LS180 cells [4]; LS180, 4 h
  activity at 100 µM: 38.3%
LS180 cells [4]; [8]
  inhibition of resveratrol metabolism (in words): significant inhibition
LS180 cells [5]; 2-ME 10 μM, inhibitor 100 μM
  inhibition of 2ME metabolism (in words): Significant inhibition
LS180 cells [5]; [9]
  Extent of 2-ME Disappearance (as % of control): 33.9%
LS180 cells [5]; read-out: Extent of 2-ME Disappearance (as % of control), 2-ME 10 μM, inhibitor 100 μM, incubation time 1 hr (table)
  activity at 100 µM: 21.2%

## O=C(O)C=Cc1ccccc1 [cinnamic acid]
LS180 cells [4]; [7]
  activity at 100 µM: 16.3%
LS180 cells [4]; [8]
  inhibition of resveratrol metabolism (in words): significant inhibition

## COc1cc(/C=C/C(=O)CC(=O)/C=C/c2ccc(O)c(OC)c2)ccc1O [curcumin]
[3]; [11]
  activity at 100 µM: 24 ± 24%
[3]; [13]
  activity at 100 µM: 24.5%

## CCOc1cc(C=O)ccc1O [ethylvanillin]
[3]; [13]
  activity at 100 µM: 76.5%
LS180 cells [4]; [7]
  activity at 100 µM: 8.1%
LS180 cells [4]; [8]
  inhibition of resveratrol metabolism (in words): greatest extent of inhibition

Reference: patent US9616033B2, “Selective metabolic approach to increasing oral bioavailability of phenylephrine and other phenolic bioactivities” (VIRGINIA COMMONWEALTH UNIVERSITY, priority 2011, dated 2017)
